From US8545841B2, “Methods and compositions for the treatment of cancers and pathogenic infections” (University of Florida Research Foundation, Inc., priority 2008, dated 2013) come the findings set out here.

The structures appear in SMILES notation.

One experiment concerns HuH7 hepatoma cells. The experiment is described as follows: Survival of nutrient-starved cells, crystal violet staining. Type of experiment: cell-based. As to conditions: HuH7, nutrient-deprived serum-free medium, 24 hours. As for the experimental part: (§1) FIGS. 6A-B. Atg-4-targeted drugs decrease cell survival of nutrient deprived cancer cells. Control breast epithelial MCF10A, MDA-MB 468 breast carcinoma, Saos2 osteosarcoma, and HuH7 hepatoma were incubated under nutrient fed and starved conditions in the presence and absence of AI-1 and AI-2. The number of viable cells on the plate relative to fed after 24 hrs was quantified by crystal violet staining. Bars=mean±SEM, n=4-6 trials.
(§2) During the early stages of tumor growth prior to vascularization, cancer cells are exposed to conditions lacking nutrients and growth factors. These cells are able to survive these conditions by activating autophagy, thereby degrading endogenous macromolecules and recycling the nutrients. In order to simulate these conditions in vitro, we have incubated cells in the absence of amino acids and serum. Approximately 65-75% of the normal and cancer cell lines tested survived when exposed to nutrient-deprived serum-free medium for 24 hours.

Experiment [1] concerns normal breast epithelial cells (MCF10A). The description is as above. Type of experiment: cell-based. Particulars: nutrient-deprived serum-free medium, 24 hours. As for the experimental part: as §1, §2
The next experiment deals with MDA-MB468 cells. The experiment is described as follows: Size and distribution of autophagic vacuoles by electron microscopy. It counts as cell-based. Particulars: starved MDA-MB468 cells. The protocol: FIGS. 5A-5D. Atg-4-targeted drugs reduce the size of autophagic vacuoles. MDA-MB468 cells were incubated under nutrient fed (FIG. 5A) and starved (medium lacking amino acids and serum; FIG. 5B) conditions in the presence and absence of AI-1 (FIG. 5C) and AI-2 (FIG. 5D), Autophagic vacuoles (arrows) were visualized by electron microscopy. The “black” reaction product of CMPase, a lysosomal enzyme, can be seen within small lysosomes, many larger autophagic vacuoles (arrows) as well as the Golgi apparatus (Go).
The Atg4 compounds were obtained from the National Cancer Institute (NCI) and then tested for their ability to suppress autophagy by observing the presence of autophagosomes in Saos-2 osteosarcoma and MDA-MB468 breast carcinoma cell lines stabling expressing Atg8 tagged with a green fluorescent protein (GFP-Atg8). Upon the onset of autophagy, Atg8 becomes lipidated being anchored to the autophagosome membrane whereby this protein then recruits additional membranes for expanding the size of the vacuoles and thus, regulating the degradative amplitude of autophagy. […] Compared to 70% of the starved cells containing autophagic vacuoles, less than 20% of those starved cells treated with AI-1 or AI-2 contained these vacuoles. These observations were consistent with the negative effects of these compounds on the lipidation of Atg8 (FIG. 3). […]

For experiment [2], the system named is Saos-2 and MDA-MB468 cells. The experiment is described as follows: Starvation induced (autophagy-mediated) protein degradation, pulse-chase with 14C-leucine. It counts as cell-based. Particulars: starved cells, FIG. 4. As for the experimental part: FIG. 4. Atg-4-targeted drugs suppress starvation induced (autophagy-mediated) protein degradation. Saos-2 and MDA-MB468 cells were incubated under nutrient fed and starved conditions in the presence and absence of 3-methyladenine (3MA), AI-1 and AI-2 and the rates of protein degradation measure by pulse-chase methodology with 14C-leucine. Bars=mean±SEM. n=4-6 trials. The Atg4 compounds were obtained from the National Cancer Institute (NCI) and then tested for their ability to suppress autophagy by observing the presence of autophagosomes in Saos-2 osteosarcoma and MDA-MB468 breast carcinoma cell lines stabling expressing Atg8 tagged with a green fluorescent protein (GFP-Atg8). Upon the onset of autophagy, Atg8 becomes lipidated being anchored to the autophagosome membrane whereby this protein then recruits additional membranes for expanding the size of the vacuoles and thus, regulating the degradative amplitude of autophagy. […] Compared to 70% of the starved cells containing autophagic vacuoles, less than 20% of those starved cells treated with AI-1 or AI-2 contained these vacuoles. These observations were consistent with the negative effects of these compounds on the lipidation of Atg8 (FIG. 3). Saos-2 cells expressing GFP-Atg8 were starved for amino acids for 2-6 h in the absence and presence of 3-methyladenine and the Atg4 compounds. […]

The subject of another experiment is Atg8 (LC3). The experiment can be described thus: Lipidation of Atg8 (Atg8-PE) by Western blotting in starved Saos-2 cells. It counts as cell-based. Particulars: Saos-2 cells expressing GFP-Atg8 starved for amino acids for 2-6 h. An excerpt: FIG. 3. Atg-4-targeted compounds suppress the lipidation of Atg8 (LC3) in Saos-2 osteosarcoma cells. The lipidation of Atg8 (Atg8-PE) was examined by Western blotting in fed and starved (medium lacking amino acids and serum) cells and in starved cells treated with 3-methyladenine (3MA), AI-1 and AI-2. The Atg4 compounds were obtained from the National Cancer Institute (NCI) and then tested for their ability to suppress autophagy by observing the presence of autophagosomes in Saos-2 osteosarcoma and MDA-MB468 breast carcinoma cell lines stabling expressing Atg8 tagged with a green fluorescent protein (GFP-Atg8). Upon the onset of autophagy, Atg8 becomes lipidated being anchored to the autophagosome membrane whereby this protein then recruits additional membranes for expanding the size of the vacuoles and thus, regulating the degradative amplitude of autophagy. […] Compared to 70% of the starved cells containing autophagic vacuoles, less than 20% of those starved cells treated with AI-1 or AI-2 contained these vacuoles. These observations were consistent with the negative effects of these compounds on the lipidation of Atg8 (FIG. 3). Saos-2 cells expressing GFP-Atg8 were starved for amino acids for 2-6 h in the absence and presence of 3-methyladenine and the Atg4 compounds. […]
In general terms: Immunoblotting shows a protein as a band on a membrane.

The next experiment concerns P. gingivalis. The experiment is described as follows: Trafficking of P. gingivalis to lysosomes in human coronary arterial endothelial cells (HCAEC). Type of experiment: cell-based, Porphyromonas gingivalis. Particulars: HCAEC exposed to P. gingivalis; replicative vacuole in untreated cells. The source says: FIGS. 7A-7D. The inhibition of autophagy by AI-1 and AI-2 results in the trafficking of P. gingivalis to lysosomes. Human coronary arterial endothelial cells (HCAEC) were exposed to P. gingivalis (Pg) in the absence (FIG. 7A) and presence of 3-methyladenine (3MA) (FIG. 7B) and compounds AI-1 (FIG. 7C) and AI-2 (FIG. 7D).
We have previously shown that autophagy is required for P. gingivalis to thrive within host endothelial cells (Dorn, B. R., Dunn, W. A., Jr., and Progulske-Fox, A. “Porphyromonas gingivalis traffics to autophagosomes in human coronary artery endothelial cells” Infect Immun, 2001, Vol. 69, pp. 5698-5708). In fact, in the absence of autophagy, this bacterium fails to form a “replicative vacuole” and is instead transported to lysosomes where the bacterium is destroyed by digestive enzymes. We then tested the efficacy of AI-1 and AI-2 to promote the intracellular movements of this intracellular pathogen to the destructive lysosomes.

Experiment [3] has as its system Saos-2 osteosarcoma and MDA-MB468 breast carcinoma cell lines. The experiment is described as follows: GFP-Atg8 labeled autophagic vacuoles in nutrient-starved cells stably expressing GFP-Atg8. Type of experiment: cell-based. As to conditions: starved Saos-2 cells, FIG. 2. The protocol:
FIGS. 2A-2D. Atg-4-targeted drugs decreased the number of Atg8 (LC3)-labeled autophagic vacuoles. Saos-2 osteosarcoma and MDA-MB468 breast carcinoma cells stably expressing GFP-Atg8 were incubated under nutrient fed and starved (St) conditions in the presence and absence of AI-1 and AI-2. The presence GFP-Atg8 labeled autophagic vacuoles appear as dots (arrows) in starved Saos-2 cells (FIG. 2B). Atg8-labeled vacuoles are not observed in fed Saos-2 cells or starved cell treated with AI-1. Almost 70% of the starved cells contained autophagic vacuoles. However, the number of starved cells containing autophagic vacuoles was dramatically reduce upon treatment with AI-1 and AI-2 (FIG. 2D; n=number of cells counted). The Atg4 compounds were obtained from the National Cancer Institute (NCI) and then tested for their ability to suppress autophagy by observing the presence of autophagosomes in Saos-2 osteosarcoma and MDA-MB468 breast carcinoma cell lines stabling expressing Atg8 tagged with a green fluorescent protein (GFP-Atg8). Upon the onset of autophagy, Atg8 becomes lipidated being anchored to the autophagosome membrane whereby this protein then recruits additional membranes for expanding the size of the vacuoles and thus, regulating the degradative amplitude of autophagy. […]

Experiment [4] relates to breast carcinoma MDA-MB468 cells. The experiment is described as follows: Survival of nutrient-starved cells, crystal violet staining. Type of experiment: cell-based. As to conditions: MDA-MB468, nutrient-deprived serum-free medium, 24 hours. As for the experimental part: as §1, §2
The subject of experiment [5] is Saos-2 osteosarcoma cells. The experiment is described as above. Type of experiment: cell-based. As to conditions: Saos-2, nutrient-deprived serum-free medium, 24 hours. The protocol:
as §1, §2

Consider `CC(C)OC(=O)Nc1ccc2nc(-c3cscn3)[nH]c2c1` [AI-2, cambendazole], for which the “survival of nutrient-starved cells” value with HuH7 hepatoma cells is 30 % of controls; in [1], “only moderately affected”. Moreover, the “distribution of autophagic vacuoles” value in the experiment on MDA-MB468 cells was “dramatic redistribution of the autophagic vacuoles to a centralized region of the cell”. Also, in [2], the “degradation of endogenous proteins” value is “reduction in the degradation of endogenous proteins”. Also, the “lipidation of Atg8 (Atg8-PE)” value in the experiment on Atg8 (LC3) is given as “inhibiting the lipidation of Atg8 (LC3)”. Besides, the “location and state of intracellular P. gingivalis” value with P. gingivalis is recorded as “bacteria in various degraded states were observed in CMPase-positive lysosomes”.
As to `Cn1cnc(N)c2ncnc1-2` [3-methyladenine, reference compound], in the experiment with P. gingivalis, the “location and state of intracellular P. gingivalis” value is listed as “partially degraded bacteria were found in CMPase-positive lysosomes”.
For `S=C(Nc1ccccn1)c1ccccn1` [AI-1, N-2-pyridinyl-2-pyridinecarbothioamide], the Atg8-labeled vacuoles observed result in [3] is reported as “not observed”. Further, the “survival of nutrient-starved cells” value is “moderate activity” with HuH7 hepatoma cells, “less than 40%” in [4], “moderate activity” in [5] and “only moderately affected” in [1]. The “degradation of endogenous proteins” value in experiment [2] was “reduction in the degradation of endogenous proteins”. In addition, the “lipidation of Atg8 (Atg8-PE)” value in the experiment on Atg8 (LC3) is reported as “inhibiting the lipidation of Atg8 (LC3)”. The “location and state of intracellular P. gingivalis” value with P. gingivalis is listed as “bacteria in various degraded states were observed in CMPase-positive lysosomes”.
